Assays:
Bcl-2 [1] = experiment: Western blot, M2 cells transfected with 6myc-ARTS, caspase inhibition; assay type: cell-based, human
Description: (§1) The cells were transfected with either 6-MycTag-ARTS in pCS2 or sport-ARTS in pCMV plasmid, that was produced in Sarit Larisch lab as described previously (Larisch & Yi […]). For the transfection the Turbofect (Fermentas) was used with concentration of 0.1 μg/l DNA for 6-MycTag-ARTS and sport-ARTS plasmid.
(§2) The cells were lysed in WCE (whole-cell extract) buffer [[…] Hepes, pH 7.7, 0.3M NaCl, 1.5 mM MgCl2, 0.2 mM EDTA, 0.1% Triton X-100, 100 μg/ml PMSF and protease inhibitor cocktail (Roche, 1:100 dilution)]. 100 μg of total cell protein, measured with the Bio-Rad Protein Assay kit, were separated by SDS-PAGE (12%) followed by transfer for 2 h on to a nitrocellulose membrane. The membrane was blocked with 5% (w/v) non-fat dried skimmed milk powder in PBS supplemented with 0.05% Tween20 (PBS-T) for 1 hour at room temperature (R.T). Membrane was then probed with primary antibody at 4° C. overnight. Next, the membrane was incubated with the appropriate HRP-conjugated secondary antibody, for 1 hour at R.T. and washed 15 min×3 with PBS-T. WesternBright ECL (Advansta) was added to the membrane for 2 min and analyzed using ImageQuant LAS-4000 analyzer (GE Healthcare Life Sciences) & “ImageQuant LAS-4000” software (GE Healthcare Life Sciences). Densitometry analysis was performed using ImageQuant total lab 7 (GE Healthcare Life Sciences), image analysis software.
(§3) The inventors next examined whether caspases mediate the cleavage of the N′-terminal part of ARTS. To this end, the inventors transfected M2 cells with 6myc-ARTS and cells were either untreated or treated with a pan inhibitor of all caspases, Q-VD. […] In contrast, no change in XIAP levels was shown (FIG. 7D).

6myc-ARTS = experiment: as above; assay type: cell-based, human
Description: as §1, §2, §3

XIAP [2] = experiment: as above; assay type: cell-based, human
Description: as §1, §2, §3

[3] = molecular target: recombinant GST-tagged XIAP (Homo sapiens, UniProt P98170); experiment: MicroScale Thermophoresis (MST) binding to whole XIAP; settings: GST-tagged XIAP (FIG. 4D), read-out: calculated Kd
Chain of recombinant GST-tagged XIAP (P98170 whole entry): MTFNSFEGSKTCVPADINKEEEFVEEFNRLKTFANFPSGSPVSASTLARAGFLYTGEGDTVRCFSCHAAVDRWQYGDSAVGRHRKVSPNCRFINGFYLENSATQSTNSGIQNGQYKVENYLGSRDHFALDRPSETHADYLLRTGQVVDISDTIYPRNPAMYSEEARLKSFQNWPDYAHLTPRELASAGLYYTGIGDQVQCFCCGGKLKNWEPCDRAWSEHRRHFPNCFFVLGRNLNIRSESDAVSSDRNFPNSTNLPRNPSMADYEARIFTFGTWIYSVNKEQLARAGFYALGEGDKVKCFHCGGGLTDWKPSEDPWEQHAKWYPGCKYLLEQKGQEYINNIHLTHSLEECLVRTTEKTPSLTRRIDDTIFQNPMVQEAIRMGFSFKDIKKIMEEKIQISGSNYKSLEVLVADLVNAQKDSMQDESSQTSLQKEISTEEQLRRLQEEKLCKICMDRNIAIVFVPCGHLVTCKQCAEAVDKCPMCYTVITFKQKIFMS
Description: (§4) 340 nM of fl-labeled Bir3 was titrated with A4 compound in 1:1 dilutions beginning at 500 μM, in a 25 mM Tri-Sodium acetate buffer pH 5.6, 2% DMSO and 0.05% Tween 20. The measurements were performed on a NanoTemper Monolith instrument.
(§5) To further characterize the A4 candidate, MicroScale Thermophoresis (MST) was used to evaluate the binding of the A4 compound to fluorescently labeled Bir3 (His-tagged) domain of XIAP, residues 252-350. […] Microscale thermophoresis (MST) is a technology for the interaction analysis of biomolecules. Microscale thermophoresis is the directed movement of particles in a microscopic temperature gradient. Any change of the hydration shell of biomolecules due to changes in their structure/conformation results in a relative change of the movement along the temperature gradient and is used to determine binding affinities. MST allows measurement of interactions directly in solution without the need of immobilization to a surface (immobilization-free technology).
To further characterize the A4 candidate, the MSTtechnology described above was used to evaluate the binding of the A4 compound to recombinant GST-tagged XIAP, as presented in FIG. 4D.

XIAP [4] = molecular target: T1, XIAP (Homo sapiens, UniProt P98170); experiment: Western blot, A375 human melanoma cells; assay type: cell-based; design: endogenous in cells; host or cells: A375 human melanoma cells; settings: 20 μM, 24 hrs
T1 sequence (P98170 whole entry): as above
Description: as §2
(§6) The candidate molecules were next subjected to functional assays, examining their ability to induce apoptosis. Therefore, the expression of several apoptotic markers was examined in A375 human melanoma cells exposed to 20 μM of each of the candidate compounds. […] No effect on cCaspase or c-PARP was shown.

[5] = system: 293 cells stably expressing Bcl-2 cherry reporter; experiment: Combination with BH3 mimetic in Bcl-2 cherry reporter cells; assay type: cell-based; settings: A4 combined with ABT199, 293 cells Bcl-2 cherry reporter
Description: pcDNA-3.1 vector carrying Bcl2 with an mCherry fusion c′ terminus fluorescent tag and neomycin (G418) resistance sequences was transfected into HEK 293T cells using Turbofect (Fermentas). Cells were then treated with G418, and resistant fluorescent cells were further sorted and isolated by FACS-sorter. Mono-clones of the stably expressing Bcl2-mCherry and G418 resistance were propagated and used for the experiments.

[6] = molecular target: T2, fluorescently labeled Bir3 (His-tagged) domain of XIAP, residues 252-350 (Homo sapiens, UniProt P98170); experiment: MicroScale Thermophoresis (MST) binding to Bir3 domain of XIAP; settings: 340 nM fl-labeled Bir3, pH 5.6, 2% DMSO, read-out: calculated Kd
T2 construct: His-tagged Bir3 (XIAP 252-350) was expressed and purified; made in house
T2 sequence (P98170 252-350): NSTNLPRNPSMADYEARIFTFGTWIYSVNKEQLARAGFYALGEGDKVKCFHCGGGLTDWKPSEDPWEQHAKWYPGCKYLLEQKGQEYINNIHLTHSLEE
Description: His-tagged Bir3 (XIAP 252-350) was expressed and purified as previously described (Reingewertz et al, 2011). The purified Bir3 was labeled with the Monolith NT™ Protein Labeling Kit RED according to the supplied labeling protocol.
as §4, §5

M2 organoids = M2 organoids in 3D BME culture, polarization and lumen formation; assay type: cell-based, human
Description: Cells were harvested from their growth plates using 0.25% trypsin EDTA. Collected cells were cultured in Cultrex® growth factor reduced Basement Membrane Extract (BME: Trevigen, Inc) as follows: An 8 chamber glass slide system (Lab-TEK® II, Naperville, IL) was coated with 60 μl BME [Barkan D. et al., Cancer Research (2008)](protein concentration between 15 mg/ml; thickness˜1-2 mm). 5×10^3 cells per well were re-suspended in DMEM/F12 supplemented with 2.5% DHS and 2% BME and cultured on the coated slides. Slides were incubated at 37° C., 5% CO2 incubator. Cells were re-fed every 4 days. Cell morphology was monitored by light microscopy. Immunofluorescence images were captured by Nikon A1-R confocal laser scanning microscope (Haifa University, Haifa, Israel).
Laminin5 immunofluorescence staining: was performed as described by Barkan et al., [Cancer Research (2008)]. Briefly, cells cultured in 8 well chamber glass slides in 3D BME, as described above. The cultured cells were fixed and permeabalized for 5 minutes with 4% Paraformaldehyde (PFA) containing 5% sucrose and 0.2% Triton X-100, and re-fixed for an additional 25 minutes with 4% PFA containing 5% sucrose. The cells were washed for 10 minutes with PBS and an additional 10 minutes with PBS containing 0.05% Tween 20 (Sigma). Fixed cells were blocked with 3% BSA in PBS for 1 hour and incubated overnight at 4° C. with primary antibody (Rabbit polyclonal antibody to Laminin-5 (1:200)). The cells were washed three times with PBS for 15 minutes each, and incubated for 1 hour with […] conjugated to Alexa Fluor®647 (Invitrogen), washed as above and mounted with VECTASHIELD mounting medium with 4′,6-diamidino-2-phenylindole (DAPI). For F-actin staining cells were incubated over night with Alexa-Fluor®488 Phalloidin (1:40) (Molecular Probes) washed three times with PBS for 15 minutes each, and mounted with VECTASHIELD mounting medium with DAPI. The slides were imaged using Nikon A1-R confocal laser scanning microscope (Haifa University, Haifa, Israel). […]

Bcl-2 [7] = experiment: Proteasome-mediated degradation study, HeLa cervical cancer cells; assay type: cell-based
Description: as §2
(§7) HeLa cervical cancer cells: 1.5*10^6 HeLa cells were seeded on a 10 cm plate in DMEM and were propagated to 80% confluence. Cells were treated for 2 hour with either DMSO (control) or 30 μM A4 together with 20 μM MG-132 (proteasome inhibitor) or without MG-132. […]

XIAP [8] = molecular target: T1, XIAP; experiment: as above; assay type: cell-based; design: endogenous in cells; host or cells: HeLa cervical cancer cells
Description: as §2, §7

c-PARP = experiment: Western blot, A375 human melanoma cells; assay type: cell-based; settings: 20 μM, 24 hrs
Description: as §2, §6

Bcl-2 [9] = experiment: Western blot, A375 human melanoma cells; assay type: cell-based; settings: 20 μM, 24 hrs
Description: as §2, §6

cCaspase = experiment: Western blot, A375 human melanoma cells; assay type: cell-based; settings: 20 μM, 24 hrs
Description: as §2, §6

XIAP [10] = molecular target: T1, XIAP; experiment: Proteasome-mediated degradation study, T47D breast cancer cells; assay type: cell-based; design: endogenous in cells; host or cells: T47D breast cancer cells
Description: as §2
(§8) T47D breast cancer cells: 1*10^6 T47D cells were seeded on a 10 cm plate in RPMI and were propagated to 80% confluence. Cells were treated for 1 hour with either DMSO (control) or 30 μM A4 together with 20 μM MG-132 (proteasome inhibitor) or without MG-132. […]

[11] = system: M2 cells (MCF10AT1K, premalignant breast cells); experiment: Proliferation assay of M2 cells in 2D culture; assay type: cell-based, human; settings: 24 and 48 hours
Description: Human breast cancer cell lines MCF-10A (M1) was received from Prof. Israel Vlodavsky (Technion, Israel), MCF10AT1K (M2) and MCF10ACA1 h (M3) were received from Dr. Fred Miller (Barbara Ann Karmanos Cancer Institute). M1 and M2 cells were maintained in DMEM/F12 supplemented with 5% donor horse serum (DHS), 1% sodium pyrovate, 1% L-glutamine, 0.02 μg/ml epidermal growth factor (EGF; Peprotech), 0.01 mg/ml insulin (Sigma), 0.5 μg/ml hydrocortisone (Sigma), 0.1 μg/ml cholera toxin (Sigma) and 1% penicillin-streptomycin at 37° C., 5% CO2 incubator. M3 cells were maintained in DMEM/F12 supplemented with 5% DHS and 1% penicillin-streptomycin at 37° C. and incubated in 5% CO2 incubator.
The CellTiter 96 AqueousOne Solution of cell proliferation assay kit (Promega) was added to the wells for 2 hours to measure cell proliferation according the manufacturer's instructions. The absorbance was recorded at 490 nm.

Bcl-2 [12] = experiment: Proteasome-mediated degradation study, T47D breast cancer cells; assay type: cell-based
Description: as §2, §8

[13] = 30 μM A4 + 20 μM MG-132, 2 hour
[14] = 30 μM A4 + 20 μM MG-132, 1 hour

With `CC(C)[C@H](NC(=O)c1ccc2ccccc2n1)C(=O)N[C@@H](CC(=O)O)C(=O)COc1c(F)cccc1F` [Q-VD] the Bcl-2 levels (Bcl-2 [1]) was “significantly increased”, the “cleaved 6-myc ARTS” value (6myc-ARTS) was “decrease” and the “uncleaved 6myc-ARTS” value (6myc-ARTS) was “increase”. For the same compound, the XIAP levels (XIAP [2]) was “no change”.
`COC(=O)c1[nH]c2ccc(Cl)cc2c1NC(=O)CN1CCN(Cc2ccccc2)CC1` [A4, methyl 5-chloro-3-[[2-[4-(phenylmethyl)piperazin-1-yl]acetyl]amino]-1H-indole-2-carboxylate] was tested, and the Kd [3] was 34.6 ± 2.48 µM, the “levels of XIAP” value (XIAP [4]) was “clearly reduced” and the “effect of combination with BH3 mimetic” value [5] was “synergetic effect”. The Kd [6] was 46.1 ± 3.65 µM, the “apicobasal polarization (GM130, Laminin 5 staining)” value (M2 organoids; 40 μM, 7 days) was “initiation of apical staining of GM130 and basal staining of Laminin 5” and the organoid phenotype (M2 organoids; 40 uM, 14 days) was “conversion thereof to a normal-like phenotype”. The “polarization and lumen formation” value (M2 organoids; 40 uM, 14 days) was “apicobasal polarization of M2 organoids followed by luminal formation”, the “Bcl-2 levels with proteasome inhibitor” value (Bcl-2 [7]; [13]) was “restored” and the Bcl-2 levels (Bcl-2 [7]; 30 μM A4, 2 hour) was “decrease”. The “XIAP levels with proteasome inhibitor” value (XIAP [8]; [13]) was “restored”, the XIAP levels (XIAP [8]; 30 μM A4, 2 hour) was “specific decrease” and the “effect on c-PARP” value (c-PARP) was “No effect”. The “levels of Bcl-2” value (Bcl-2 [9]) was “clearly reduced”, the “effect on cCaspase” value (cCaspase) was “No effect” and the “XIAP levels with proteasome inhibitor” value (XIAP [10]; [14]) was “restored”. For the same compound, the XIAP levels (XIAP [10]; 30 μM A4, 1 hour) was “specific decrease”, the apoptotic cells [11] was “only low amount of apoptotic cells” and the cell proliferation [11] was “decrease in cell proliferation”. For the same compound, the “Bcl-2 levels with proteasome inhibitor” value (Bcl-2 [12]; [14]) was “restored” and the Bcl-2 levels (Bcl-2 [12]; 30 μM A4, 1 hour) was “decrease”.
